Columns and labels:
[1] = Solubility of C18-ceramide itself in aqueous solution; type: physicochemical; details: without lipid nanoparticles
MDA-MB-468 cells = experiment: Cell viability, WST-8 reagent, absorbance at 450nm; type: cell-based; details: ceramide alone dispersed in aqueous solution in the same amount as in Examples 1 and 2, column purified
Procedure: (§1) MDA-MB-231 and MDA-MB-468 cells were cultured at 37°C under 10% fetal bovine serum (FBS) and ATCC modified RPMI medium (Gibco) supplemented with 1% penicillin/streptomycin, 5% CO2.
(§2) For experiments, lipid nanoparticles prepared at each concentration of C18-ceramide were respectively treated (the number of particles: 4.5 x 10^8 ± 2.05 x 10^8) to MDA-MB-231 and MDA-MB-468 cells which were inoculated into a 96-well plate (1.5 x 10^3 cells/well). After 24 hours of incubation, WST-8 reagent (Dojindo) was added to the medium at 37°C for 1 hour. Absorbance was measured at 450nm using a microplate reader (BioTek). Thereafter, cell viability was confirmed by measuring absorbance every 24 hours.
In addition, the cell viability of MDA-MB-468 cells was reduced to 53% when lipid nanoparticles of 5 mM C18-ceramide were treated (FIG. 9b).

MDA-MB-231 cells = experiment: Cell viability, WST-8 reagent, absorbance at 450nm; type: cell-based; details: ceramide alone dispersed in aqueous solution in the same amount as in Examples 1 and 2, column purified
Procedure: as §1, §2

[2] = test system: apoptosis-related proteins (BAX, BAD, BCL2, and cleaved caspase3); experiment: Western blotting of apoptosis-related proteins in MDA-MB-468 cells; type: cell-based; details: ceramide alone dispersed in aqueous solution in the same amount as in Examples 1 and 2, column purified
Procedure: MDA-MB-468 cells were cultured in ATCC modified RPMI medium (Gibco) supplemented with 10% fetal bovine serum (FBS) and 1% penicillin/streptomycin at 37°C under 5% CO2.
For experiments, MDA-MB-468 cells were seeded onto 60 mm^2 cell culture plates (1.3 x 10^6 cells/plate). After 24 hours, LNP prepared at different concentrations of C18-ceramide was calculated and added to 2.5 mL opti-MEM medium per well such that 2.48 x 10^11±2.75 x 10^10 particles were included in the medium. The medium containing LNP was treated and incubated at 37°C for 24 hours.
Thereafter, the cells were collected, and western blotting was performed. For this purpose, MDA-MB-468 cells treated with LNP were lysed in RIPA buffer containing a protease inhibitor and a phosphatase inhibitor (Sigma). Total cell lysates were quantified using the BCA protein assay kit (Thermo Scientific). Next, the cell lysate (50 µg) was loaded on a 4-15% gradient SDS-PAGE gel (Biorad) under denaturing conditions and transferred to a PVDF membrane (iBlot2 Dry Blotting System, Thermo Scientific). […]
The secondary antibody conjugated with HRP was reacted at room temperature for 2 hours, and then the membrane was treated with Western ECL, and the luminescence image was analyzed using LAS500 (GE Healthcare), and the results are shown in FIG. 10.

- solubility in an aqueous solution [1]: insoluble
Structure (SMILES): CCCCCCCC/C=C\CCCCCCCC(=O)N[C@@H](CO)[C@H](O)[C@H](O)CCCCCCCCCCCCCC (stereo in doubt) [C18-ceramide, N-Oleoyl-phytosphingosine]
- cell survival rate (MDA-MB-468 cells): no change
- cell survival rate (MDA-MB-231 cells): no change
- antitumor-related protein expression [2]: no change
